These results are taken from publication PMC6172251, “Two Engineered OBPs with opposite temperature-dependent affinities towards 1-aminoanthracene” (Scientific Reports, 2018).

In test [1] the target is T1, truncated OBP (tOBP), engineered from OBP-I (Sus scrofa, UniProt P81245, F44A/F66A).
T1 construct: OBP-I with deletion of the first 16 residues of the N-terminal and F44A and F66A; His-tag at N-terminal
T1 sequence (P81245 17-157 F44A/F66A): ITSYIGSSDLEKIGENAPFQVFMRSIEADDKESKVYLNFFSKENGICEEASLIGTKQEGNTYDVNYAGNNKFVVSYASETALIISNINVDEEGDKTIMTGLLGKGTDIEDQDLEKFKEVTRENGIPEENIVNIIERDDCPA
Briefly: direct fluorescence titration with 1-AMA (ex […] nm, em […] nm), […] °C; Kd […] at […] °C. The test is classed as binding.

Test [2] deals with T2, OBP::GQ20::SP-DS3, engineered from OBP-I (Sus scrofa, UniProt P81245).
T2 construct: fusion of OBP-I with a linker of 20 glycine-glutamine repeats (GQ20) and the anchor peptide SP-DS3 ([…]); His-tag at N-terminal
T2 sequence (P81245 1-157): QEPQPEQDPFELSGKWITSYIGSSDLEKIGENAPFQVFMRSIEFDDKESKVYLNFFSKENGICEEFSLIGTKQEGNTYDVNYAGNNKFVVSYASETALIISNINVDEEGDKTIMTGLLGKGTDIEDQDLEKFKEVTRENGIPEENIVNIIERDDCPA
The test is described as above. The class given is binding.

As for `Nc1cccc2cc3ccccc3cc12` [1-AMA, 1-aminoanthracene], the results for the Kd in test [1] and in test [2] were 0.45 µM and 0.58 µM, respectively.
